{
  "source": "patent US10906946B2",
  "about": "“Thrombin inhibitors” (priority 2015, dated 2021)",
  "key": {"[1]": {"tested_on": "platelets (ADP-induced platelet aggregation)", "experiment": "Preservation of platelet function in blood tubes (Multiplate, ADP-induced platelet aggregation)", "assay_type": "cell-based, human (healthy volunteers)", "conditions": "ADP agonist", "experimental": "(§1) Individual peptides are dissolved in phosphate buffered saline to prepare 10× peptide solutions (ie. concentrations of peptides are 10 times higher than the final concentrations at which they are to be tested). 0.3 ml of the 10× peptide solutions are placed in blood tubes without any additives. Blood was drawn from healthy volunteers using syringes and immediately transferred to a 50 ml conical centrifuge tube (Falcon tube) before pipetting 2.7 ml of the blood into blood tubes with peptide solutions. Final concentrations of peptides are as stated in Table 5 and 6.\nBlood tubes with various peptides at different concentrations were left standing at room temperature until tested at designated times. At different time points, tubes were inverted several times and blood samples were taken out for platelet aggregation tests using a Multiplate® Platelet aggregometer with adenosine diphosphate (ADP) as agonist according to manufacturer's recommended protocols."}, "thrombin": {"target": "T1, thrombin (Homo sapiens, UniProt P00734)", "T1 construct": "residues in the termini of the light chain; and in the autolysis loop and C-terminus of the heavy chain; purchased Chemo-Sero-Therapeutic Research Institute (Kaketsuken, Japan), as a gift, not bought", "experiment": "Cleavage of peptide by thrombin (RP-HPLC, ESI-MS)", "assay_type": "biochemical", "conditions": "peptide incubated with thrombin (30:1)", "experimental": "A. Evaluation of avathrin cleavage by thrombin by HPLC chromatograms. Avathrin (150 μM) was incubated with thrombin (5 μM) for various times and the reaction mixtures were separated using RP-HPLC; the masses of the cleavage products were analyzed with ESI-MS. At 0 min (upper panel), a single peak corresponding to full length avathrin (mass 3139 Da) was identified. At 120 min (middle panel), two new peaks corresponding to N-terminal cleavage product (^1[…]^10 of SEQ ID NO: 1; mass 982 Da) and C-terminal cleavage product ([…] (SEQ ID NO: 4); mass 2176 Da) were identified in addition to avathrin peak. At 600 min (lower panel), two peaks corresponding to the N- and C-terminal cleaved products were observed while avathrin peak was not observed, indicating complete cleavage. B. Time-dependent cleavage of avathrin by thrombin. Relative percentages of avathrin, its N- and C-terminal cleavage products were quantified by calculating areas under the curve. Each data point is the mean±S.D. of at least three independent experiments. C. Effect of thrombin cleavage on inhibitory properties of avathrin. Avathrin was incubated with thrombin (0.81 nM) for up to 36 h, and assayed at different time points for its ability to inhibit thrombin amidolytic activity on the chromogenic substrate S2238. […]\nThrombin amidolytic activity assays for all peptides were performed in 96-wells microtiter plates in 50 mM Tris buffer (pH 7.4) containing 100 mM NaCl and 1 mg/ml bovine serum albumin. […] The rates of formation of p-nitroaniline were followed by measuring the absorbance at 405 nm for 10 min with a Tecan InfinitePro M200 microplate reader from Tecan (Männedorf, Switzerland). […] To measure the inhibitory constants, different concentrations of S2238 were used and the residual velocities were determined using the Morrison's tight binding equation. Inhibition of thrombin fibrinogenolytic activity of peptides were tested by measuring absorbance at 650 nm using a Sunrise microplate reader from Tecan (Männedorf, Switzerland) as described previously [Koh C Y, et al., J Biol Chem 282: 29101-13 (2007)]. […] Effects of avathrin on the amidolytic activities of these serine proteases were determined using respective chromogenic substrates. […] After different incubation times, reactions were quenched with 1% TFA (pH 1.8) and loaded onto a Jupiter Proteo column (4 μm, 90 Å, 100×1.0 mm) attached to a Dionex nano-HPLC system from Thermo Fisher Scientific (Waltham, Mass., USA) and eluted using an acetonitrile gradient with 0.05% TFA and 99.95% MilliQ water as eluent A and 0.05% TFA, 19.95% MilliQ water and 80% ACN as eluent B. Masses of all peaks were measured to identify cleavage products, which were subsequently quantified by integrating the peaks and calculating the area under the curves. […]"}, "blood": {"tested_on": "blood", "experiment": "Anti-coagulation effect of peptides in blood tubes (visual clot formation)", "design": "species or system human (healthy volunteers)", "conditions": "room temperature", "experimental": "as §1\nBlood tubes with various peptides at different concentrations were left standing at room temperature until tested at designated times. At different time points, tubes were inverted several times and visually inspected for insoluble materials as indications of clot formation."}},
  "data": [
    {"smiles": "CC[C@H](C)[C@H](NC(=O)[C@H](C)NC(=O)[C@H](CCC(=O)O)NC(=O)[C@H](Cc1ccccc1)NC(=O)[C@H](CC(=O)O)NC(=O)[C@H](Cc1ccccc1)NC(=O)[C@@H]1CCCN1C(=O)[C@@H]1CCCN1C(=O)[C@H](C)NC(=O)[C@@H](NC(=O)[C@H](CCCCN)NC(=O)[C@H](Cc1c[nH]cn1)NC(=O)[C@H](CCSC)NC(=O)[C@H](CCCCN)NC(=O)[C@@H]1CCCN1C(=O)[C@H](CCC(=O)O)NC(=O)[C@H](C)NC(=O)[C@@H](NC(=O)[C@H](CC(=O)O)NC(=O)CNC(=O)[C@H](CCC(N)=O)NC(=O)[C@H](CC(=O)O)NC(=O)[C@@H](N)CO)C(C)C)[C@@H](C)O)C(=O)N1CCC[C@H]1C(=O)N[C@@H](CCC(=O)O)C(=O)N[C@@H](CCC(=O)O)C(=O)N[C@@H](Cc1ccc(O)cc1)C(=O)N[C@@H](CC(C)C)C(=O)N[C@@H](CC(=O)O)C(=O)N[C@@H](CC(=O)O)C(=O)N[C@@H](CCC(=O)O)C(=O)N[C@@H](CO)C(=O)O", "note": "[Variegin, reference compound]", "values": [
      {"measurement": "Multiplate AUC (U)", "setting": "[1]; 1.5 h, peptide 150 μM", "result": 65.2, "unit": "U"},
      {"measurement": "Multiplate AUC (U)", "setting": "[1]; 1.5 h, peptide 300 μM", "result": 52.3, "unit": "U"},
      {"measurement": "Multiplate AUC (U)", "setting": "[1]; 4 h, peptide 150 μM", "result": 48.6, "unit": "U"},
      {"measurement": "Multiplate AUC (U)", "setting": "[1]; 4 h, peptide 300 μM", "result": 33.9, "unit": "U"},
      {"measurement": "Multiplate AUC (U)", "setting": "[1]; 24 h, peptide 150 μM", "result": 41.9, "unit": "U"},
      {"measurement": "Multiplate AUC (U)", "setting": "[1]; 24 h, peptide 300 μM", "result": 40.5, "unit": "U"},
      {"measurement": "Multiplate AUC (U)", "setting": "[1]; 48 h, peptide 300 μM", "result": 18.3, "unit": "U"},
      {"measurement": "time to complete cleavage by thrombin", "setting": "thrombin", "result": 4, "unit": "h"},
      {"measurement": "Time to observe clot formation", "setting": "blood; final concentration 75 micromolar", "result": 46, "unit": "h"},
      {"measurement": "Time to observe clot formation", "setting": "blood; final concentration 150 micromolar", "result": "52 to 66", "unit": "h"},
      {"measurement": "Time to observe clot formation", "setting": "blood; final concentration 300 micromolar", "result": "52 to 66", "unit": "h"}
    ]}
  ]
}
